These compounds were tested against Granzyme B (human lymphocytes) (Homo sapiens (Human), UniProt P10144) (assay: human Granzyme B biochemical assay). Conditions: Granzyme B (human lymphocytes) 5 nM, substrate Ac-IETD-AFC 200 μM, Cpd incubation with enzyme 30 mins, 22° C., read time 60 mins; read-out: IC50.
Outline: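 Enzyme (10 nM working stock, assay buffer with 0.1% BSA) pre-incubated with compound for 30 min at 22 °C, then Ac-IETD-AFC (800 µM working stock) added for 60 min at 22 °C in the dark. Fluorescence read at Ex 400/Em 505 nm; 8-point 3.16-fold series (40 µM top working stock); IC50 from % inhibition versus standard-inhibitor and DMSO controls.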

Granzyme B (human lymphocytes), sequence (P10144 21-247): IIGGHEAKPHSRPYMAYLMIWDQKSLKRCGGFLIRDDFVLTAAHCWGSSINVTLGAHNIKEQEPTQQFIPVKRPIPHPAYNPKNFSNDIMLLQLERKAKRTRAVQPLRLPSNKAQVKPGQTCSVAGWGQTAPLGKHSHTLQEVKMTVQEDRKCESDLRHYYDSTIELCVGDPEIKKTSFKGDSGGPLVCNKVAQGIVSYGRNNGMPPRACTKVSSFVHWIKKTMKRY

Compound | IC50 [nM]
Cc1ccc(C(=O)N[C@H](C(=O)N[C@H]2CCc3cccc4c3N(C2=O)[C@H](C(=O)NCc2c[nH]nn2)C4)C(C)C)cc1 [Compound C052, (2S,5S)-5-[(S)-3-Methyl-2-(4-methyl-benzoylamino)-butyrylamino]-4-oxo-1,2,4,5,6,7-hexahydro-azepino[3,2,1-hi]indole-2-carboxylic acid (1H-[1,2,3]triazol-4-ylmethyl)-amide] | 1 to 300
CC([C@H](NC(=O)c1ccccc1)C(=O)N[C@H]1CCc2cccc3c2N(C1=O)[C@H](C(=O)NCc1c[nH]nn1)C3)C(F)(F)F (stereo partly drawn) [Compound C055, (2S,5S)-5-((S)-2-Benzoylamino-4,4,4-trifluoro-3-methyl-butyrylamino)-4-oxo-1,2,4,5,6,7-hexahydro-azepino[3,2,1-hi]indole-2-carboxylic acid (1H-[1,2,3]triazol-4-ylmethyl)-amide] | 1 to 300
CC[C@H](C)[C@H](NC(=O)c1ccccc1OC)C(=O)N[C@H]1CCc2cccc3c2N(C1=O)[C@H](C(=O)NCc1c[nH]nn1)C3 [Compound C060, (2S,5S)-5-[(2S,3S)-2-(2-Methoxy-benzoylamino)-3-methyl-pentanoylamino]-4-oxo-1,2,4,5,6,7-hexahydro-azepino[3,2,1-hi]indole-2-carboxylic acid(1H-[1,2,3]triazol-4-ylmethyl)-amide] | 1 to 300
COc1ccccc1C(=O)N[C@H](C(=O)N[C@H]1CCc2cccc3c2N(C1=O)[C@H](C(=O)NCc1c[nH]nn1)C3)C(C)C [Compound C063, (2S,5S)-5-[(S)-2-(2-Methoxy-benzoylamino)-3-methyl-butyrylamino]-4-oxo-1,2,4,5,6,7-hexahydro-azepino[3,2,1-hi]indole-2-carboxylic acid (1H-[1,2,3]triazol-4-ylmethyl)-amide] | 1 to 300
COc1cccc(C(=O)N[C@H](C(=O)N[C@H]2CCc3cccc4c3N(C2=O)[C@H](C(=O)NCc2c[nH]nn2)C4)C(C)C)c1 [Compound C064, (2S,SS)-5-[(S)-2-(3-Methoxy-benzoylamino)-3-methyl-butyrylamino]-4-oxo-1,2,4,5,6,7-hexahydro-azepino[3,2,1-hi]indole-2-carboxylic acid (1H-[1,2,3]triazol-4-ylmethyl)-amide] | 1 to 300
COc1ccc(C(=O)N[C@H](C(=O)N[C@H]2CCc3cccc4c3N(C2=O)[C@H](C(=O)NCc2c[nH]nn2)C4)C(C)C)cc1 [Compound C065, (2S,5S)-5-[(S)-2-(4-Methoxy-benzoylamino)-3-methyl-butyrylamino]-4-oxo-1,2,4,5,6,7-hexahydro-azepino[3,2,1-hi]indole-2-carboxylic acid (1H-[1,2,3]triazol-4-ylmethyl)-amide] | 1 to 300
CC(C)[C@H](NC(=O)c1ccccn1)C(=O)N[C@H]1CCc2cccc3c2N(C1=O)[C@H](C(=O)NCc1c[nH]nn1)C3 [Compound C069, (2S,5S)-5-{(S)-3-Methyl-2-[(pyridine-2-carbonyl)-amino]-butyrylamino}-4-oxo-1,2,4,5,6,7-hexahydro-azepino[3,2,1-hi]indole-2-carboxylic acid (1H-[1,2,3]triazol-4-ylmethyl)-amide] | 1 to 300
CCC(CC)[C@H](NC(=O)Cc1csc2ccccc12)C(=O)N[C@H]1CCc2cccc3c2N(C1=O)[C@H](C(=O)NCc1c[nH]nn1)C3 [Compound C072, (2S,5S)-5-[(S)-2-(2-Benzo[b]thiophen-3-yl-acetylamino)-3-ethyl-pentanoylamino]-4-oxo-1,2,4,5,6,7-hexahydro-azepino[3,2,1-hi]indole-2-carboxylic acid (1H-[1,2,3]triazol-4-ylmethyl)-amide] | 301 to 1000
CCC(CC)[C@H](NC(=O)c1ccccc1)C(=O)N[C@H]1CCc2cccc3c2N(C1=O)[C@H](C(=O)NCc1c[nH]nn1)C3 [Compound C073, (2S,5S)-5-((S)-2-Benzoylamino-3-ethyl-pentanoylamino)-4-oxo-1,2,4,5,6,7-hexahydro-azepino[3,2,1-hi]indole-2-carboxylic acid (1H-[1,2,3]triazol-4-ylmethyl)-amide] | 301 to 1000

Results, then the compound that gave them:

IC50 [nM] | Compound
1 to 300 | CC[C@H](C)[C@H](NC(=O)c1cccc(OC)c1)C(=O)N[C@H]1CCc2cccc3c2N(C1=O)[C@H](C(=O)NCc1c[nH]nn1)C3 [Compound C061, (2S,5S)-5-[(2S,3S)-2-(3-Methoxy-benzoylamino)-3-methyl-pentanoylamino]-4-oxo-1,2,4,5,6,7-hexahydro-azepino[3,2,1-hi]indole-2-carboxylic acid(1H-[1,2,3]triazol-4-ylmethyl)-amide]
1 to 300 | CC[C@H](C)[C@H](NC(=O)c1ccc(OC)cc1)C(=O)N[C@H]1CCc2cccc3c2N(C1=O)[C@H](C(=O)NCc1c[nH]nn1)C3 [Compound C062, (2S,5S)-5-[(2S,3S)-2-(4-Methoxy-benzoylamino)-3-methyl-pentanoylamino]-4-oxo-1,2,4,5,6,7-hexahydro-azepino[3,2,1-hi]indole-2-carboxylic acid(1H-[1,2,3]triazol-4-ylmethyl)-amide]
1 to 300 | CC[C@H](C)[C@H](NC(=O)c1ccccn1)C(=O)N[C@H]1CCc2cccc3c2N(C1=O)[C@H](C(=O)NCc1c[nH]nn1)C3 [Compound C066, (2S,5S)-5-{(2S,3S)-3-Methyl-2-[(pyridine-2-carbonyl)-amino]-pentanoylamino}-4-oxo-1,2,4,5,6,7-hexahydro-azepino[3,2,1-hi]indole-2-carboxylicacid (1H-[1,2,3]triazol-4-ylmethyl)-amide]
1 to 300 | CC[C@H](C)[C@H](NC(=O)c1cccnc1)C(=O)N[C@H]1CCc2cccc3c2N(C1=O)[C@H](C(=O)NCc1c[nH]nn1)C3 [Compound C067, (2S,5S)-5-{(2S,3S)-3-Methyl-2-[(pyridine-3-carbonyl)-amino]-pentanoylamino}-4-oxo-1,2,4,5,6,7-hexahydro-azepino[3,2,1-hi]indole-2-carboxylicacid (1H-[1,2,3]triazol-4-ylmethyl)-amide]
1 to 300 | CC[C@H](C)[C@H](NC(=O)c1ccncc1)C(=O)N[C@H]1CCc2cccc3c2N(C1=O)[C@H](C(=O)NCc1c[nH]nn1)C3 [Compound C068, (2S,5S)-5-{(2S,3S)-3-Methyl-2-[(pyridine-4-carbonyl)-amino]-pentanoylamino}-4-oxo-1,2,4,5,6,7-hexahydro-azepino[3,2,1-hi]indole-2-carboxylicacid (1H-[1,2,3]triazol-4-ylmethyl)-amide]
1 to 300 | CC(C)[C@H](NC(=O)c1cccnc1)C(=O)N[C@H]1CCc2cccc3c2N(C1=O)[C@H](C(=O)NCc1c[nH]nn1)C3 [Compound C070, (2S,5S)-5-{(S)-3-Methyl-2-[(pyridine-3-carbonyl)-amino]-butyrylamino}-4-oxo-1,2,4,5,6,7-hexahydro-azepino[3,2,1-hi]indole-2-carboxylic acid (1H-[1,2,3]triazol-4-ylmethyl)-amide]
1 to 300 | CC(C)[C@H](NC(=O)c1ccncc1)C(=O)N[C@H]1CCc2cccc3c2N(C1=O)[C@H](C(=O)NCc1c[nH]nn1)C3 [Compound C071, (2S,5S)-5-{(S)-3-Methyl-2-[(pyridine-4-carbonyl)-amino]-butyrylamino}-4-oxo-1,2,4,5,6,7-hexahydro-azepino[3,2,1-hi]indole-2-carboxylic acid (1H-[1,2,3]triazol-4-ylmethyl)-amide]

Reference: patent US11667645B2, “Granzyme B directed imaging and therapy” (CytoSite Biopharma Inc., priority 2018, dated 2023)
